Assays:
CYP3A = experiment: Drug-drug interaction with midazolam (cohort G)
Omicron = test system: Omicron; set-up: method as in PMID 35081300; settings: cited from earlier work
[1] = in vivo; cited from earlier work
[2] = midazolam 2 mg, ensitrelvir 750/250 mg

With `Cc1ncc2n1-c1ccc(Cl)cc1C(c1ccccc1F)=NC2` [Midazolam, midazolam] the “increase of AUC0-last of midazolam coadministered with ensitrelvir vs midazolam alone” value (CYP3A; ensitrelvir 750/250 mg, day 6) was 7.23 fold, the “increase of Cmax of midazolam coadministered with ensitrelvir vs midazolam alone” value (CYP3A; ensitrelvir 750/250 mg, day 6) was 2.78 fold and the half-life (CYP3A; human, in vivo) was 9.13 h. It also gave an AUC(0-inf) (CYP3A; human, in vivo, 2 mg) of 35.7 ng·h/mL, an AUC(0-t) (CYP3A; human, in vivo, 2 mg) of 34.7 ng·h/mL and a Cmax (CYP3A; human, in vivo, 2 mg) of 16.2 ng/mL. For the same compound, the MRT (CYP3A; human, in vivo, 2 mg) was 4.11 h, the half-life (CYP3A; human, in vivo, 2 mg) was 4.36 h and the k el (CYP3A; human, in vivo, 2 mg) was 4.42e-05 s⁻¹. The “AUC0-inf, GLS mean (90% CI) ratio (midazolam with ensitrelvir/midazolam alone)” value (CYP3A; [2]) was 8.8002 (6.7061/11.5484), the “AUC0-last, GLS mean (90% CI) ratio (midazolam with ensitrelvir/midazolam alone)” value (CYP3A; [2]) was 7.2293 (5.5817/9.3632) and the “Cmax, GLS mean (90% CI) ratio (midazolam with ensitrelvir/midazolam alone)” value (CYP3A; [2]) was 2.7763 (2.3341/3.3022). The “MRT, GLS mean (90% CI) ratio (midazolam with ensitrelvir/midazolam alone)” value (CYP3A; [2]) was 2.8734 (2.5380/3.2530) and the “t1/2,z, GLS mean (90% CI) ratio (midazolam with ensitrelvir/midazolam alone)” value (CYP3A; [2]) was 2.0954 (1.9490/2.2529).
In the case of `CCC(CC)COC(=O)[C@H](C)N[P@](=O)(OC[C@H]1O[C@@](C#N)(c2ccc3c(N)ncnn23)[C@H](O)[C@@H]1O)Oc1ccccc1` [remdesivir], the “efficacy against Omicron” value (Omicron) is given as “efficacious”.
For `CC(C)(C)[C@H](NC(=O)C(F)(F)F)C(=O)N1C[C@H]2[C@@H]([C@H]1C(=O)N[C@H](C#N)C[C@@H]1CCNC1=O)C2(C)C` [nirmatrelvir], the elimination in humans [1] is given as “rapid”.
For `CC(C)C(=O)OC[C@H]1O[C@@H](n2ccc(NO)nc2=O)[C@H](O)[C@@H]1O` [molnupiravir], the “efficacy against Omicron” value (Omicron) is listed as “efficacious”.

From paper PMC9578392, “Safety, Tolerability, and Pharmacokinetics of the Novel Antiviral Agent Ensitrelvir Fumaric Acid, a SARS-CoV-2 3CL Protease Inhibitor, in Healthy Adults” (Antimicrobial Agents and Chemotherapy, 2022)
